Laboratory results published in patent publication US20090270361A1, “Substituted pyrazole derivatives and use thereof” (Takeda Pharmaceutical Company Limited, priority 2008, published 2009).
Numbering of substitutions follows the chain as printed. Like-named read-outs stand apart in the source and are kept apart here.

Assays:
[1] = target: T1, LNCaP type mutant androgen receptor (AR) (Homo sapiens, UniProt P10275, T878A); assay: AR-binding inhibition test (LNCaP type), radio-labeled Mibolerone displacement; settings: read-out: inhibition rate, LNCaP type
T1 sequence (P10275 1-920 T878A): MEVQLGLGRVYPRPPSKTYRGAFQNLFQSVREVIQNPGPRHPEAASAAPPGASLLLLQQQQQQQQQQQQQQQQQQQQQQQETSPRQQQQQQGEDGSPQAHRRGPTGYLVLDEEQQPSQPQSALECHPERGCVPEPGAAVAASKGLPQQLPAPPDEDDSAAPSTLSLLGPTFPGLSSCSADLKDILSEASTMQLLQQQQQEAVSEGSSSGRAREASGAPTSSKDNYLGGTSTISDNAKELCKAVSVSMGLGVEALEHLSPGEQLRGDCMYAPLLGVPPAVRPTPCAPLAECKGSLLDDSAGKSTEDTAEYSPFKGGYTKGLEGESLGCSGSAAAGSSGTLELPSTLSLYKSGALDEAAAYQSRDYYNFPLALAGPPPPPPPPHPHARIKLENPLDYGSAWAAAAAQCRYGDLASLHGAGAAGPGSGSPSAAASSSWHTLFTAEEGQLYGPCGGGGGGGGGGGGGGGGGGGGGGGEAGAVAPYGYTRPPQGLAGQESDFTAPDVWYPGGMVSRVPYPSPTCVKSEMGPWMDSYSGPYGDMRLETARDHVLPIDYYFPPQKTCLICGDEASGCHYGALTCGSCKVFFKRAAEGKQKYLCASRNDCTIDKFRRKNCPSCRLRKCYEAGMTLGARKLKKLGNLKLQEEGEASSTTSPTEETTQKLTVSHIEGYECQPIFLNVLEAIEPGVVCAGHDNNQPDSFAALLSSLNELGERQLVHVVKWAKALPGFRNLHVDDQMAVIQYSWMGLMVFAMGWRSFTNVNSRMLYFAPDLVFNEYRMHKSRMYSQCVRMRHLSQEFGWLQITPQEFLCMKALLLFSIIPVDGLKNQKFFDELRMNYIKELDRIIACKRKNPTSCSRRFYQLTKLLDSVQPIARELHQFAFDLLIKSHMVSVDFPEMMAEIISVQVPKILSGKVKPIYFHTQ
Method: (§1) AR-Binding Inhibition Test (Wild Type and LNCaP Type)
(§2) To a solution of wild type or LNCaP type mutant androgen receptor (AR) was added 3 nM radio-labeled Mibolerone and final concentration 1 μM of the compound. The mixture was incubated at 4° C. for 3 hours, and B (Bound) and F (Free) Mibolerones were separated by the dextran/charcoal method. The label count of B was measured and the inhibition rate of the compound was calculated.

mutant AR (W741C) = target: T2, mutant AR (W741C) (Homo sapiens, UniProt P10275, W742C); assay: AR transcription inhibition test (luciferase reporter in Cos-7 cells); type: cell-based; settings: compound 1 μM; DHT 0.1 μM; Cos-7 cells cotransfected with mutant AR (W741C) and androgen responsive luciferase reporter; 24 hr; relative to control (0.1 μM DHT); read-out: AR transcription inhibitory rate (%)
T2 construct: expressed in transfected cells; host or cells: Cos-7
T2 sequence (P10275 1-920 W742C): T1 sequence (P10275 1-920 T878A) with W742C, A878T
Method: AR Transcription Inhibition Test
Cos-7 cells (5,000,000 cells) were inoculated to a flask, and incubated in a culture medium (DMEM +10% Dextran Charcoal (DCC)-Fetal Bovine Serum (FBS) and 2 mM glutamine) for 24 hours. Then, a vector DNA harboring mutant AR (W741C) and a vector DNA containing a luciferase gene bound at the downstream of an androgen responsive promoter were cotransfected by a liposome method. After 4 hr, the medium was changed and, after culture for 3 hr, DHT (dihydrotestosterone) at the final concentration of 0.1 μM and the compound at the final concentration of 1 μM were added. After further culture for 24 hr, the luciferase activity was measured, and the AR transcription inhibitory activity of the compound was examined.

[2] = target: T3, wild type androgen receptor (AR) (Homo sapiens, UniProt P10275); assay: AR-binding inhibition test (wild type), radio-labeled Mibolerone displacement; settings: read-out: inhibition rate, wild type
T3 sequence (P10275 1-920): T1 sequence (P10275 1-920 T878A) with A878T
Method: as §1, §2

[3] = tested on: Human prostate cancer cells LNCaP-FGC; assay: Prostate specific antigen (PSA) production inhibition test in prostate cancer cells; type: cell-based; settings: for inhibition at 1 µM: Homo sapiens, 72 h, read-out: PSA production inhibitory rate (%)
[4] = compound final concentration 1 μM, 3 nM radio-labeled Mibolerone, 4° C., 3 hours, dextran/charcoal method

Structure (SMILES) | inhibition at 1 µM [1] [%] | inhibition at 1 µM (mutant AR (W741C)) [%] | inhibition at 1 µM [2] [%] | inhibition at 1 µM [3] [%] | further results
Cc1nn(-c2ccc(C#N)c(Cl)c2)c(C)c1Cc1ccc(C(=O)NCC(O)CO)cc1 (racemic) [Example 321, (±)-4-{[1-(3-chloro-4-cyanophenyl)-3,5-dimethyl-1H-pyrazol-4-yl]methyl}-N-(2,3-dihydroxypropyl)benzamide] | 84 | 38 | 78 | 91 | 
Cc1nn(-c2ccc(C#N)c(Cl)c2)c(C)c1Cc1ccc(C(=O)N(C)CCO)cc1 [Example 296, 4-{[1-(3-chloro-4-cyanophenyl)-3,5-dimethyl-1H-pyrazol-4-yl]methyl}-N-(2-hydroxyethyl)-N-methylbenzamide] | 64 | 39 | 52 | 79 | 
Cc1nn(-c2ccc(C#N)c(Cl)c2)c(C)c1Cc1ccc(C(=O)N2CC[C@H](O)C2)cc1 [Example 332, 2-chloro-4-[4-(4-{[(3S)-3-hydroxypyrrolidin-1-yl]carbonyl}benzyl)-3,5-dimethyl-1H-pyrazol-1-yl]benzonitrile] | 78 | 22 | 72 | 84 | 
Cc1nn(-c2ccc(C#N)c(Cl)c2)c(C)c1Cc1ccc(-c2nnc(C(N)=O)o2)cc1 [Example 350, 5-(4-{[1-(3-chloro-4-cyanophenyl)-3,5-dimethyl-1H-pyrazol-4-yl]methyl}phenyl)-1,3,4-oxadiazole-2-carboxamide] | 92 | 93 | 87 | 101 | 
Cc1nn(-c2ccc(C#N)c(Cl)c2)c(C)c1Cc1ccc(C(=O)NC(C)(C)C)cc1 [Example 351, N-tert-butyl-4-{[1-(3-chloro-4-cyanophenyl)-3,5-dimethyl-1H-pyrazol-4-yl]methyl}benzamide] |  |  |  | 109 | 
Cc1nn(-c2ccc(C#N)c(Cl)c2)c(C)c1Cc1ccc(C(=O)N2CCC(O)CC2)cc1 [Example 355, 2-chloro-4-(4-{4-[(4-hydroxypiperidin-1-yl)carbonyl]benzyl}-3,5-dimethyl-1H-pyrazol-1-yl)benzonitrile] | 51 | 23 | 47 | 117 | 
Cc1nn(-c2ccc(C#N)c(Cl)c2)c(C)c1Cc1ccc(C(=O)NCC(C)(C)O)cc1 [Example 356, 4-{[1-(3-chloro-4-cyanophenyl)-3,5-dimethyl-1H-pyrazol-4-yl]methyl}-N-(2-hydroxy-2-methylpropyl)benzamide] |  |  |  | 98 | 
Cc1nn(-c2ccc(C#N)c(Cl)c2)c(C)c1Oc1ccc(C(=O)N2CCOCC2)cc1 [Example 357, 2-chloro-4-{3,5-dimethyl-4-[4-(morpholin-4-ylcarbonyl)phenoxy]-1H-pyrazol-1-yl}benzonitrile] |  |  |  | 100 | 
Cc1nn(-c2ccc(C#N)c(Cl)c2)c(C)c1Cc1ccc(C(=O)N2CC(O)C2)cc1 [Example 363, 2-chloro-4-(4-{4-[(3-hydroxyazetidin-1-yl)carbonyl]benzyl}-3,5-dimethyl-1H-pyrazol-1-yl)benzonitrile] | 79 | 23 | 73 | 100 | 
Cc1nn(-c2ccc(C#N)c(Cl)c2)c(C)c1Oc1ccc(C(=O)N2CCS(=O)(=O)CC2)cc1 [Example 367, 2-chloro-4-(4-{4-[(1,1-dioxidethiomorpholin-4-yl)carbonyl]phenoxy}-3,5-dimethyl-1H-pyrazol-1-yl)benzonitrile] |  | 24 |  |  | inhibition at 1 µM [1, 4]: 77%; inhibition at 1 µM [2, 4]: 49%; inhibition at 1 µM ([3]; compound 1 μM, testosterone final concentration 0.1 ng/m, PSA in culture supernatant after 3 days by ELISA, testosterone non-addition group = 100%, testosterone addition group = 0%): 109%
Cc1nn(-c2ccc(C#N)c(Cl)c2)c(C)c1Oc1ccc(NC(=O)C(C)(C)C)cn1 [Example 455, N-(6-{[1-(3-chloro-4-cyanophenyl)-3,5-dimethyl-1H-pyrazol-4-yl]oxy}pyridin-3-yl)-2,2-dimethylpropanamide] |  |  |  | 108 | 
CC(O)(CS(=O)(=O)c1ccc(F)cc1)C(=O)Nc1ccc(C#N)c(C(F)(F)F)c1 (stereo not drawn) [bicartamide, reference compound] |  |  |  |  | PSA production inhibitory rate (%) ([3]; 1 µM): 75%
